Assay results as given in patent US20240059740A1, “CYCLIC PEPTIDES AND USES THEREOF” (PRE[…] INC., priority 2020, published 2024).
Residues, ends and D or L forms follow the SMILES beside them.

Legend:
[1] = test system: uPA; assay: Casein-plasminogen zymography of conditioned media, uPA production; type: cell-based, human; conditions: for uPA production: compared to control containing no peptide
Source text: To assess whether the peptide SEQ ID NO.1 impacted MMP-2, MMP-9 and uPA production Zymography was used.
Zymography is a technique for studying hydrolytic enzymes on the basis of substrate degradation. The in-gel zymography hydrolytic enzymes are separated by their molecular weights and detected by their ability to degrade a substrate. To detect the activity of MMP-2 and MMP-9 in various cell lines, conditioned media were collected in 3 independent experiments and analysed by gelatin zymography to quantify the level of gelatin digestion, which reflects MMP-2 and MMP-9 activity and production. Casein-Plasminogen zymography was conducted to determine the activity level of uPA in the conditioned medium from various cell lines. Active uPA converts plasminogen into plasmin which then digests casein, thus clear bands where digestion of casein have occurred indirectly represent uPA activity.
The effect of the peptides on matrix protease production was tested using in-gel zymography. If the substrate included in the gel is gelatin, the enzymes detected are gelatinases: MMP-2 and MMP-9 (the latter is often of low abundance). If the gel contains casein and plasminogen, the enzymes tested are urokinase plasminogen activators (uPA); uPA is a therapeutic target in GBM.
An equal amount of protein from each sample was mixed with 5 μL of Laemmli buffer (0.01% Bromophenol Blue (W/V), 5% SDS (W/V), 22% glycerol (V/V), 14% 0.5 M Tris pH 6.8 (V/V)) and loaded onto a 10% polyacrylamide gel co-polymerized with 1 mg/ml of gelatin, and electrophoresed at 120 V for 2 hours on ice. The gel was incubated in […] solution (Triton X-100 2.5% (V/V), 1 M Tris pH 7.5 5% (V/V), 0.5 M CaCl2 1% (W/V) at room temperature overnight on an orbital shaker. The gel was incubated in a second solution for 3 hours at 37° C. The gel was then stained with Coomassie blue solution (Coomassie blue 0.25%, methanol 45%, acetic acid 10%) and destained in methanol 25% (V/V), acetic acid 10% (V/V) destaining solution until clear bands against the dark background appeared around 72 kDa and 95 kDa, representing MMP-2 and MMP-9 activity, respectively. Clear bands around 50 kDa appeared against the dark background representing uPA activity. The gels were scanned, and uPA, MMP-2 and MMP-9 were quantified by densitometry using NIH Image J software.
SEQ ID NO.1 was compared to a control containing no peptide to evaluate whether the peptide can reduce the production of matrix proteinases. […] This could be confirmed using a MMP-9 quantification kit, and altered production by a transcriptional mechanism can be unveiled using qRT-PCR.

[2] = test system: Snail-1 mRNA; assay: Real time RT-PCR, Snail-1 mRNA expression; type: cell-based, human
Source text: The real-time reverse transcription polymerase chain reaction (RT-PCR) uses fluorescent reporter molecules to monitor the production of amplification products during each cycle of the PCR reaction. This combines the nucleic acid amplification and detection steps into one homogeneous assay and use of appropriate chemistries and data analysis eliminates the need for Southern blotting or DNA sequencing for amplicon identification. Its simplicity, specificity and sensitivity, together with its potential for high throughput and the ongoing introduction of new chemistries, more reliable instrumentation and improved protocols, has made real-time RT-PCR the benchmark technology for the detection and/or comparison of RNA levels.’
In order to detect and quantify the expression of specific genes at mRNA level, real-time reverse transcriptase polymerase chain reaction (Real time RT-PCR) was performed. Total RNA of samples was isolated and purified using the PureLink® RNA Mini Kit (Life technologies). The concentration of total RNA was detected by NanoDrop 2000 Spectrophotometer (Thermo Scientific). The total RNA (2000 ng) was reverse transcribed using the High-Capacity cDNA Reverse Transcription Kit (Applied Biosystems™).
The primers of target genes were TaqMan™ Gene Expression Assay for human PLAU (Hs01547054_m1), MMP-2 (Hs01548727_m1), MMP-9 (Hs00957562_m1), Snail-1 (Hs00195591_m1), Snail-2 (Hs00161904_m1), N-cadherin (Hs00983056_m1) and Twist (Hs01675818_s1). Relative quantification was done by reference to 18S ribosomal RNA (18S rRNA) and analysed using the comparative critical threshold (Ct) method
The mRNA expression of MMPs was measured using qRT-PCR. This was tested three independent times; the results are shown in Tables 9, 10 and 11 for U251, U87 cells and O81024 cells respectively. Results are reported as percent of the control cells (no treatment). Both MMP-2 and uPA were decreased in U251 by SEQ ID NO.1.
Epithelial-mesenchymal transition (EMT) is the process by which epithelial cells acquire a migratory (metastatic) phenotype and so EMT is associated with cancer metastasis, cancer cell stemness, chemoresistance and immune resistance. Therefore, the determination of the mRNA expression of EMT markers is a valuable tool to evaluate invasion potential of cancer cells.
The ‘Snail’ superfamily is involved in cell differentiation and survival, two processes central in cancer research. Snail-1 has a pivotal role in the regulation of epithelial-mesenchymal transition (EMT) and Snail-1 expression is associated with poor prognosis in metastatic cancer, and tumours with elevated Snail-1 expression are harder to treat. The significance of Snail-1 as a prognostic indicator, its involvement in the regulation of EMT and metastasis, and its roles in both drug and immune resistance point out that Snail-1 is an attractive target for tumour growth inhibition and a target for sensitization to cytotoxic drugs (Kaufhold et al., 2014). Twist is transcriptionally active during cell differentiation and lineage determination. During the establishment of cancer metastases by EMT, Twist acts independently of Snail to suppress E-cadherin and to upregulate N-cadherin (CDH-2) and fibronectin. Snail-2 (Slug) is another member of the SNAIL family of transcriptional activators and serves an important role in suppressing the epithelial phenotype in numerous cancer cells (Iwadate, 2016).

With `CC(C)C[C@@H]1NC(=O)[C@H](C)NC(=O)[C@@H](NC(=O)[C@@H]2CCCN2C(=O)[C@@H](N)CC(C)C)CSSC(C)(C)CNC(=O)CC[C@@H](C(=O)N[C@@H](CCCNC(=N)N)C(N)=O)NC(=O)[C@H](CC(=O)O)NC(=O)[C@H](CC(N)=O)NC1=O` [SEQ ID NO: 1, Leu-Pro-c(SSA*-Ala-Leu-Asn-Asp-Glu)-Arg-NH2] (HELM PEPTIDE1{L.P.C.A.L.N.D.E.R.[am]}|CHEM1{[CC(C)(CN[*:2])S[*:1]]}$PEPTIDE1,CHEM1,3:R3-1:R1|PEPTIDE1,CHEM1,8:R3-1:R2$$$V2.0; N-terminus assumed) the uPA production ([1]; 081024 cells) was 96.43 ± 16.6, the uPA production ([1]; U87 cells) was 89.03 ± 5.98 and the uPA production ([1]; U251 cells) was 79.92 ± 8.86. The “production of uPA (overall, in words)” value ([1]; overall, all cell lines, cell-conditioned media) was “did not decrease”, the “mRNA expression, Snail-1” value ([2]; 081024 cells, baseline expression level = 1, listed as SEQ ID NO. 1) was 0.60 and the “mRNA expression, Snail-1” value ([2]; 081024 cells, baseline expression level = 1, listed as SEQ ID NO.1) was “halved”. For the same compound, the “mRNA expression, Snail-1” value ([2]; U87 cells, baseline expression level = 1) was 0.84, the “mRNA expression, Snail-1” value ([2]; U251 cells, relative to control (no treatment), listed as SEQ ID NO. 1) was 0.42 and the “mRNA expression, Snail-1” value ([2]; U251 cells, relative to control (no treatment), listed as SEQ ID NO.1) was “decreased”.
